The text below walks through data of patent US4906661A, “Esters of aryloxypropanolamine derivatives” (E. I. Du Pont de Nemours and Company, priority 1989, dated 1990).

“And” between values parts separate entries of the source, which are not always exact repeats. Equal values may be shown once. Where only a bound is given, the exact number is not on record here.

One may read the fraction remaining as what is left of the initial amount, in per cent.

Data set [1] in a line: Enzymatic hydrolysis by dog aqueous humor (procedure C). It is filed as in vitro ADME. Particulars: for remaining at 1 h / remaining at 2 h: 37° C., procedure C; for remaining at 1 h: read-out: % Drug remaining, 1 HR, dog aqueous humor; for remaining at 2 h: read-out: % Drug remaining, 2 HR, dog aqueous humor; for half-life: approximate value, determined by procedure C, read-out: T1/2 dog aqueous humor; for metabolised at 2 h: two hours, read-out: hydrolyzed in aqueous humor after two hours. The text has this:
(§1) Chemicals--Acetonitrile was "HPLC" grade. Distilled water was used to dissolve the compounds and 0.01 N HCl was used to dissolve compounds requiring an acidic pH for dissolution. Enzyme Source--Fresh aqueous humor was collected from eyes of dogs using a 23-gauge needle while fresh dog blood was collected into heparinized Vacutainer tubes. Fresh liver was homogenized in 0.9% NaCl using a Potter-Elvehjem Teflon pestle and glass homogenizer to make a 25% (W/V) homogenate. […] Denatured tissue controls were prepared by adding 2.0 ml of acetonitrile into 0.5 ml of aqueous humor, blood, or liver homogenate to destroy esterase activities prior to addition of the β-blockers. These controls were then incubated at 37° C. for 120 min. […] Sample Processing and Data Analyses--All samples were centrifuged at 4000 RPM for 10 min to sediment denatured proteins. The resultant supernatants were transferred to WISP.cndot. vials and analyzed using an HPLC assay developed for beta blockers. The hydrolysis of β-blockers by aqueous humor, blood, and liver homogenate was determined by disappearance of the compounds. The extent of enzymatic hydrolysis by each tissue was determined by comparing the amount of each compound (absolute peak area) recovered at each time point to the amount of each compound (absolute peak area) in denatured tissue control and aqueous control samples.

Data set [2] is described as follows: Half-life in dog liver homogenate (procedure D). It is filed as in vitro ADME. Particulars: 37° C., read-out: T1/2 dog liver homogenate. On the procedure:
(§2) In each experiment, 1 ml of a solution containing 50 μg of the test compound was added to 1 ml of whole blood or 1 ml of a 33% (w/v) liver homogenate. The samples were incubated in a Dubnoff shaking metabolic incubator for 2.5, 5.0, 10.0, 20.0, 30.0 and 60.0 minutes at 37° C. At the designated time periods, the test mixtures were removed from the incubator and transferred to a 0° C. ice bath. Acetonitrile (2 ml) was immediately added and the mixtures were mixed to stop enzymatic hydrolysis. Zero time samples were prepared by adding 2 ml of acetonitrile to denature the proteins prior to addition of the test compounds. After centrifugation to sediment denatured proteins, 2 ml of the supernatant was removed and analyzed by high pressure liquid chromatography, using a mobile phase of 60% acetonitrile/40% 0.05 M sodium phosphate buffer (pH 6.6), a U.V. detector and Waters μ Bondapak Phenyl column.
(§3) The half life of each test compound was determined graphically by plotting the decrease in concentrations as a function of time.

A short description of data set [3]: Enzymatic hydrolysis by dog blood (procedure C). Format: in vitro ADME. Particulars: 37° C.; for remaining at 1 h: read-out: % Drug remaining, 1 HR, dog blood; for remaining at 2 h: read-out: % Drug remaining, 2 HR, dog blood. The protocol: Chemicals--Acetonitrile was "HPLC" grade. Distilled water was used to dissolve the compounds and 0.01 N HCl was used to dissolve compounds requiring an acidic pH for dissolution.
Enzyme Source--Fresh aqueous humor was collected from eyes of dogs using a 23-gauge needle while fresh dog blood was collected into heparinized Vacutainer tubes. Fresh liver was homogenized in 0.9% NaCl using a Potter-Elvehjem Teflon pestle and glass homogenizer to make a 25% (W/V) homogenate.
Incubation Condition--A 0.5 ml aliquot of dog aqueous humor, blood, or liver homogenate was incubated with 12.5 μg (0.5 ml) of β-blocker in a Dubnoff shaking metabolic incubator at 37° C. for 60 and 120 min. Denatured tissue controls were prepared by adding 2.0 ml of acetonitrile into 0.5 ml of aqueous humor, blood, or liver homogenate to destroy esterase activities prior to addition of the β-blockers. These controls were then incubated at 37° C. for 120 min. After 60 and 120 min, the incubations were terminated by addition of 2 ml of acetonitrile and immediately mixed by a Vortex.cndot. to stop esterase activities.
Sample Processing and Data Analyses--All samples were centrifuged at 4000 RPM for 10 min to sediment denatured proteins. The resultant supernatants were transferred to WISP.cndot. vials and analyzed using an HPLC assay developed for beta blockers. The hydrolysis of β-blockers by aqueous humor, blood, and liver homogenate was determined by disappearance of the compounds. The extent of enzymatic hydrolysis by each tissue was determined by comparing the amount of each compound (absolute peak area) recovered at each time point to the amount of each compound (absolute peak area) in denatured tissue control and aqueous control samples.

The subject of data set [4] is heart rate response to isoproterenol. Put plainly: Duration and potency of beta-blocking action in vivo, 3-hour infusion in anesthetized dogs, isoproterenol challenge. Set-up: species or system dog. Particulars: Table II; for Recovery Time 50%: 50% recovery from β-blockade after termination of infusion; for Recovery Time 80%: 80% recovery from β-blockade after termination of infusion; for % I, percent inhibition of heart rate response to isoproterenol: end of 3-hour infusion, isoproterenol 0.5 μg/kg. On the procedure: The duration of β-blockade was determined In vivo using pentobarbital-anesthetized dogs instrumented for measurement of heart rate using a Beckman cardiotachometer triggered electronically by a phasic aortic blood pressure signal. Both vagus nerves were served in the cervical region and the animals were mechanically ventilated. The experimental design used employed a 3-hour infusion of test compound. Bolus doses of isoproterenol (0.5 μg/kg) were used to assess the degree of β-blockade and recovery from β-blockade after […] of the infusion. The doses were spaced at 10-minute intervals and were given before, during and following the infusion of test compounds. The infusion rate was adjusted so that at the end of the 3-hour infusion period the degree of isoproterenol inhibition averaged about 50% of control. Following termination of blocker infusion, percent recovery from β-blockade was computed and the time associated with 80% recovery estimated.
^c Time in minutes for 50% recovery from 50% blockade levels after 3
Infusions of drug. Number of experiments is equal to or greater than thre
for each compound unless noted otherwise. Tabulated data are mean values
^c The betablocking activities were evaluated Invivo in a canine
model. The betablocker was infused in the animal for 3 hours with the dos
adjusted to give approximately 50%. blockage of the Isoproternolinduced
tachycardia. The infusion was then terminated and the time required for
80% recovery of blockade was recorded as duration of action of the
compound. The amount of drug infused during the 3 hours was averaged and
expressed as potency in ug/kg/min.

A short description of data set [5]: Half-life in dog whole blood (procedure D). Format: in vitro ADME. Particulars: 37° C., read-out: T1/2 dog blood. The protocol: as §2, §3
Data set [6] relates to β-adrenergic receptors, guinea pig trachea vs right atria. In words: Cardioselectivity, KB trachea/KB atria. Format: cell-based. Particulars: 10^(pA2 atria-pA2 trachea); ratio greater than one indicates cardioselectivity.
Experimental: Each tissue was suspended between a fixed glass rod and a Statham Universal Transducer connected to a Beckman recorder. Atria were allowed to beat spontaneously under a loading tension of approximately 0.5 gm. Intrinsic depressant or stimulant activity was determined for each compound by progressively increasing concentrations in the tissue baths at 60-minute intervals. Tissues were not washed between increments. The maximum concentration showing little or no cardiodepressant activity was chosen for blockade experiments. Changes in rate in response to isoproterenol, a standard β-receptor agonist, were measured in the absence and presence of test compounds. Spiral strips of guinea pig trachea were suspended under 5 gm resting tension and incubated with phentolamine, tropolone and cocaine. Active tension was generated by addition of carbachol (3.0×10^-7 M) and decreases in tension in response to isoproterenol were quantitated. Cumulative concentration-response curves were produced with isoproterenol both before and after 60-minute incubation of test compounds with atria and trachea. […] The degree of cardioselectivity was estimated from the ratio, KB trachea/KB atria (10^(pA2 atria-pA2 trachea)). A ratio greater than one indicates cardioselectivity. Test drugs were dissolved in distilled water and added to the bath (30 ml) in a volume of 10 or 100 μl.
The nature of data set [7]: Enzymatic hydrolysis by dog liver homogenate (procedure C). Format: in vitro ADME. Particulars: for remaining at 1 h / remaining at 2 h / half-life: dog, liver homogenate; for remaining at 1 h / remaining at 2 h: 37° C., procedure C; for remaining at 1 h: read-out: % Drug remaining, 1 HR, dog liver homogenate; for remaining at 2 h: read-out: % Drug remaining, 2 HR, dog liver homogenate; for half-life: approximate value, determined by procedure C, read-out: T1/2 dog liver homogenate.
From the text: as §1

For `COC(=O)c1ccccc1OCC(O)CNCCNC(C)=O` (stereo not shown) [Example I, Methyl 2-[2-Hydroxy-3-[N-2(-acetamidoethyl)amino]propoxy]benzoate], in data set [1], the share remaining at 1 h amounted to 93%, the share remaining at 2 h was found to be 93%, the half-life was > 2 h and the metabolised at 2 h was 7%. The half-life in data set [2] stood at 2.78 h. In data set [3], the fraction remaining at 1 h is 54% and the share remaining at 2 h is 47%. Moreover, in data set [4], the “Recovery Time 50%” value came out at 8 ± 1 min; the “Recovery Time 80%” value was determined as 18 ± 1 min; the “% I, percent inhibition of heart rate response to isoproterenol” value (shortened to “% I, percent inhibition”) is reported as 54 ± 2%. For the same compound, the half-life in data set [5] came to 1.03 ± 0.133 h. In addition, the “Cardioselectivity KB (Trachea)/KB (Atria)” value (“Cardioselectivity KB” for short) in data set [6] is on record as 2. Moreover, in data set [7], the share remaining at 1 h is 0%, the fraction remaining at 2 h is 0% and the half-life is < 1 h. Moreover, in data set [7] (within 60 minutes), the “hydrolysis in liver homogenate” value is “completely hydrolyzed”.

Consider `COC(=O)c1ccccc1OCC(O)CNCCNC(=O)Cc1ccccc1` (stereo not shown) [III, Methyl 2-[2-Hydroxy-3-[N-[2-(phenylacetamido)ethyl]amino]propoxy]benzoate], for which, in data set [1], the share remaining at 1 h amounted to 100%, the share remaining at 2 h was 98%, the half-life was > 2 h and the metabolised at 2 h is 2%. Further, the metabolised at 1 h in data set [1] (one hour, read-out: hydrolyzed in aqueous humor after one hour) came out at 0%. Moreover, in data set [2], the half-life is 2.15 h. Besides, in data set [3], the share remaining at 1 h amounted to 53% and the fraction remaining at 2 h was found to be 23%. For the same compound, in data set [4], the “Recovery Time 50%” value was 20 min and 19 min; the “Recovery Time 80%” value was 40 min and 45 min; the “% I, percent inhibition” value was 57% and 60%. For the same compound, the half-life in data set [5] was determined as 1.22 ± 0.267 h. Besides, the “Cardioselectivity KB” value in data set [6] is 4. For the same compound, in data set [7], the amount remaining at 1 h was found to be 0%, the fraction remaining at 2 h stood at 0% and the half-life is < 1 h.

For `COC(=O)c1ccccc1OCC(O)CNCCNC(=O)C(C)C` (stereo not shown) [II, Methyl 2-[2-Hydroxy-3-[N-[2-(2-methylpropionamido)ethyl]amino]propoxy]benzoate], in data set [1], the amount remaining at 1 h stood at 94%, the fraction remaining at 2 h came out at 91% and the half-life is > 2 h. Further, the half-life in data set [2] is > 3 h. In data set [3], the amount remaining at 1 h was 41% and the share remaining at 2 h was 16%. Moreover, in data set [4], the “Recovery Time 50%” value is given as 7 ± 1 min; the “Recovery Time 80%” value is 17 ± 1 min; the “% I, percent inhibition” value is 59 ± 2%. Moreover, the half-life in data set [5] is 1.03 ± 0.05 h. Further, the “Cardioselectivity KB” value in data set [6] is 4. In data set [7], the amount remaining at 1 h came out at 0%, the share remaining at 2 h amounted to 0% and the half-life is < 1 h.
